Data reported in patent US9981950B2, “Triazoles as NR2B receptor inhibitors” (Janssen Pharmaceuticals, Inc., priority 2014, dated 2018).

Legend:
[1] = target: T1, rat NR1/NR2B receptor (Rattus norvegicus (Rat), UniProt P35439+Q00960); assay: RRNR2BB: inhibition of specific binding to the rat NR1/NR2B receptor; details: [3H]-Ifenprodil binding, rat brain membranes, Hill-plot 2-parameter-model
In short: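 Washed membranes from male Wistar rat forebrain (whole brain minus cerebellum) in 5 mM Tris/1 mM EDTA pH 7.4 used in ifenprodil-site binding, 60 min at 4° C. Nonspecific binding defined with […] CP101.606; bound separated by filtration on PEI-soaked filters. IC50 from Hill plot, 2-parameter model.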

[2] = target: T1, rat NR1/NR2B receptor; assay: NR2B binding assay: inhibition of specific [3H]-Ifenprodil binding to the rat NR1/NR2B receptor; details: rat brain membranes, Hill-plot 2-parameter-model
Protocol: Inhibition of Specific Binding to the Rat NR1/NR2B Receptor
Male Wistar rats (180 to 200 g) were killed by suffocation in a CO2 chamber for two minutes. Whole brains without cerebellum were removed and dissected on ice, placed into closed vials and stored at −70° C.
Membrane fractions were prepared and tested using standard techniques. At the time of the assay, 1 g of the brains was placed into 25 ml of 50 mM Tris/10 mM EDTA buffer, pH 7.1, (25 vol. per g of original tissue) and homogenized for 30 sec at 20000 rpm with an Ultraturrax T25 (Jahnke & Kunkel, IKA-Labortechnik, Staufen, Germany). The homogenate was centrifuged at 4° C. for 10 min at 48000 g (OPTIMA L-70, Beckman, Palo Alto, Calif. 94304, USA).
The supernatant was discarded and the pellet was homogenized on ice for 30 sec at 20000 rpm with an Ultraturrax and again centrifuged at 48000 g for 30 minutes at 4° C. The resulted pellet was resuspended in 25 ml of 50 mM Tris/10 mM EDTA buffer, homogenized for 30 sec with an Ultraturrax, aliquoted, frozen at −70° C. and stored until use.
After thawing on the day of the assay, a 5 ml membrane aliquot was centrifuged at 48000 g for 30 min at 4° C. The pellet was resuspended in 5 ml of 5 mM Tris/1 mM EDTA buffer, pH 7.4, homogenized for 30 sec at 20000 rpm with an Ultraturrax and centrifuged at 48000 g for 30 min at 4° C. This was repeated twice. The final pellet was homogenized in 5 ml of 5 mM Tris/l mM EDTA buffer at 4° C. with an Ultraturrax and used for the Ifenprodil-binding assay as described in the following.
Nonspecific binding was estimated in the presence of […] CP101.606. The samples were incubated for 60 min. at 4° C.
The incubation was terminated by filtration of the membrane preparations using Filtermat B (Pharmacia, Uppsala Sweden) and a Micro Cell Harvester (Skatron, Lier, Norway). The Filtermat B had been presoaked with 1% polyethylene imine and carefully washed with 50 mM Tris/HCl-buffer pH 7.7 after the filtration to separate free and bound radioactivity.
The optimal amount of membrane preparation in the assay had been determined and optimized for each membrane preparation separately before the test.
For pipetting of the incubation mixture we routinely used the robot Biomek2000 (Fa. Beckman).
For determination of IC50 values the Hill-plot, 2-parameter-model was used.

[3] = target: hERG-receptor (Homo sapiens (Human), UniProt Q12809); assay: HERGBD: inhibition of specific 3H-Dofetilide binding to the hERG-receptor; details: HEK cell membranes with human ERG, Hill-plot 2-parameter-model
Sequence of hERG-receptor (Q12809 whole entry): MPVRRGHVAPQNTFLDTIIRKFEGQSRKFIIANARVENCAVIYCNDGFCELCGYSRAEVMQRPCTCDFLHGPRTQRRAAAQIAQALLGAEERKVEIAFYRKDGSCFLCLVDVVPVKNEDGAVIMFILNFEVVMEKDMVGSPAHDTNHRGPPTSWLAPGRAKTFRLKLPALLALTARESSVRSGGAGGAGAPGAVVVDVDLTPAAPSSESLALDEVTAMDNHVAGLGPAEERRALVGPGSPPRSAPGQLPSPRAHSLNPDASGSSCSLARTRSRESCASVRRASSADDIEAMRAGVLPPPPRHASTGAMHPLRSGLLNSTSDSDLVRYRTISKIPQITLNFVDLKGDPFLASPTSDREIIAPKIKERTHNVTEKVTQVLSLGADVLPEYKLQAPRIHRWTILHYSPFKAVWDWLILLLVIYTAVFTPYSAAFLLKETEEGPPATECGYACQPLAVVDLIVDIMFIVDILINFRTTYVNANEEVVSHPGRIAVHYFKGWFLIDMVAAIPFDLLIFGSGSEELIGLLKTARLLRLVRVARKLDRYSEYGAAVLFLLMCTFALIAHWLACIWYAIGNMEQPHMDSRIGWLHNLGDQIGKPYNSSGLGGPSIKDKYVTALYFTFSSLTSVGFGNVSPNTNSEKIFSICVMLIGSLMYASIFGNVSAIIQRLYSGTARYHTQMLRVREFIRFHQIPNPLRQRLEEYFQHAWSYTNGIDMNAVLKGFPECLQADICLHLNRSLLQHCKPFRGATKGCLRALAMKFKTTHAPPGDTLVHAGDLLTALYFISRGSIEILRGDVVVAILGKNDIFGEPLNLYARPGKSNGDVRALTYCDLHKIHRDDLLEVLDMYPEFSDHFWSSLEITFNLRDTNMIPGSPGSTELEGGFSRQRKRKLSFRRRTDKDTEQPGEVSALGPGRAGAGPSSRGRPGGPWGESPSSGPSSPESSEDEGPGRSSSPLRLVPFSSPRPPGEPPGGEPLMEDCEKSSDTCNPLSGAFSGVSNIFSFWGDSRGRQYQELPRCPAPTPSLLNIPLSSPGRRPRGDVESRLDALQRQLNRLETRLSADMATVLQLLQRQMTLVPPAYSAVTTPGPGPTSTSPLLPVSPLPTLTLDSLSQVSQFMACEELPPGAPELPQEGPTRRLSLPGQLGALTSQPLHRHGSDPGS
In short: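 Membranes from HEK cells stably expressing human ERG incubated 90 min at RT with 1.5 nmol/l 3H-dofetilide in 20 mM HEPES/0.1 mM KCl pH 7.2, inhibitor in 1% DMSO. Nonspecific binding with […] dofetilide; bound ligand separated by filtration and scintillation counted.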

T1 sequence (Q00960 27-1482, other chains not shown): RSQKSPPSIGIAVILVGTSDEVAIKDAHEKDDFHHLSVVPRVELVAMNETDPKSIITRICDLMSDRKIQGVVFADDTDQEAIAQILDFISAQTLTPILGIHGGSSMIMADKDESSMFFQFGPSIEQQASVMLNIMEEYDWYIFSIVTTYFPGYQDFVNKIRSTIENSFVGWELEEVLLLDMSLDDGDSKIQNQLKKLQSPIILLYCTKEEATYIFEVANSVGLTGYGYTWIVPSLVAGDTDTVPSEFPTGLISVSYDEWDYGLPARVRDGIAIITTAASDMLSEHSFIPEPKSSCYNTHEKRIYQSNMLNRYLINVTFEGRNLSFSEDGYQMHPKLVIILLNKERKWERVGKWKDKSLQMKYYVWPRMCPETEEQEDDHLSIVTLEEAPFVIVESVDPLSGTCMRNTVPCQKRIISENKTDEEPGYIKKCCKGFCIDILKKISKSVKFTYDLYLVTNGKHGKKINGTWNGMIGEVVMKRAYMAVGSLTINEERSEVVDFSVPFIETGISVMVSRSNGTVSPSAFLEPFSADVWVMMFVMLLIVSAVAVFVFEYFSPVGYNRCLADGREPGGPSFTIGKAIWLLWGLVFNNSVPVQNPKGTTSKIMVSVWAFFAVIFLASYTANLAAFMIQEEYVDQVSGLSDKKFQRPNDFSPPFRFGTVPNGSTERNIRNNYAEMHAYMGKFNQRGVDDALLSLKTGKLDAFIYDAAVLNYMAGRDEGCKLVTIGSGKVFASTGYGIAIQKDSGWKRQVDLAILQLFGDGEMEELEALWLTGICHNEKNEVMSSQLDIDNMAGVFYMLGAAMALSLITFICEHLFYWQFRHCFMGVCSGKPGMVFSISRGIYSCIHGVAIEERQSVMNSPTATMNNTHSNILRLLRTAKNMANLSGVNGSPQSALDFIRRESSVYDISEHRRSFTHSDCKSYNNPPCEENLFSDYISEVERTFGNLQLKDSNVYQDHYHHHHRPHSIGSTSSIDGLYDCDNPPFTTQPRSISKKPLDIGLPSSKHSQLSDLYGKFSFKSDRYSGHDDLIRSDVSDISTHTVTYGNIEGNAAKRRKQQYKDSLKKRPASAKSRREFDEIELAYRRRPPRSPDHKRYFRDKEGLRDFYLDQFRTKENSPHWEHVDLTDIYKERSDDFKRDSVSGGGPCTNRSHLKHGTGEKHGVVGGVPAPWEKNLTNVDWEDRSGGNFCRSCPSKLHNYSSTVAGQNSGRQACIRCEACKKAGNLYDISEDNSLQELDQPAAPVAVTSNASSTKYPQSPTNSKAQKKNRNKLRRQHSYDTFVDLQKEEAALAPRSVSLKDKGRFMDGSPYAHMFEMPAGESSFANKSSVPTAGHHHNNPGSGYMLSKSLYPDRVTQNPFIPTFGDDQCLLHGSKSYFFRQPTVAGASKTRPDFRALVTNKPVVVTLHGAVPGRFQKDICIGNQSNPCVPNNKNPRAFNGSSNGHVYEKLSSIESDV

SMILES	IC50 [1]	IC50 [2]	IC50 [3]
CCc1nccn1Cc1cn(-c2ccc(Cl)c(C(F)F)c2)nn1 [Example 91, 1-(4-Chloro-3-difluoromethyl-phenyl)-4-(2-ethyl-imidazol-1-ylmethyl)-1H-[1,2,3]triazole]	0.00243 µM	0.00243 µM	7.19 µM
Cc1nccn1Cc1cn(-c2ccc(C(F)(F)F)cc2)nn1 [Example 59, 4-(2-Methyl-imidazol-1-ylmethyl)-1-(4-trifluoromethyl-phenyl)-1H-[1,2,3]triazole]	0.046 µM	0.046 µM	6.27 µM
Cc1nccn1Cc1cn(-c2cccc(S(C)(=O)=O)c2)nn1 [Example 77, 1-(3-Methanesulfonyl-phenyl)-4-(2-methyl-imidazol-1-ylmethyl)-1H-[1,2,3]triazole]	0.615 µM	0.615 µM	150 µM
FC(F)(F)Oc1cccc(-n2cc(Cn3ccnc3C3CC3)nn2)c1 [Example 67, 4-(2-Cyclopropyl-imidazol-1-ylmethyl)-1-(3-trifluoromethoxy-phenyl)-1H-[1,2,3]triazole]	0.0345 µM	0.0345 µM	2.55 µM
CCCCc1nccn1Cc1cn(-c2ccc(Cl)c(Cl)c2)nn1 [Example 37, 4-(2-Butyl-imidazol-1-ylmethyl)-1-(3,4-dichloro-phenyl)-1H-[1,2,3]triazole]	0.00684 µM	0.00684 µM	0.585 µM
Cc1nc2ccccc2n1Cc1cn(-c2ccc(Cl)c(Cl)c2)nn1 [Example 117, 1-[[1-(3,4-dichlorophenyl)triazol-4-yl]methyl]-2-methyl-benzimidazole]	0.141 µM	0.141 µM	3.09 µM
Cc1nccn1Cc1cn(-c2cccc(C3CC3)c2)nn1 [Example 76, 1-(3-Cyclopropyl-phenyl)-4-(2-methyl-imidazol-1-ylmethyl)-1H-[1,2,3]triazole]	0.0159 µM	0.0159 µM	10.3 µM
CC(C)(C)c1nccn1Cc1cn(-c2ccc(Cl)c(OC(F)F)c2)nn1 [Example 95, 4-(2-tert-Butyl-imidazol-1-ylmethyl)-1-(4-chloro-3-difluoromethoxy-phenyl)-1H-[1,2,3]triazole]	0.0729 µM	0.0729 µM	5.84 µM
CC(C)c1nccn1Cc1cn(-c2ccc(Cl)c(Cl)c2)nn1 [Example 35, 1-(3,4-Dichloro-phenyl)-4-(2-isopropyl-imidazol-1-ylmethyl)-1H-[1,2,3]triazole]	0.0074 µM	0.0074 µM	5.88 µM
CCc1nccn1Cc1cn(-c2ccc(Cl)c(OC(F)F)c2)nn1 [Example 96, 1-(4-Chloro-3-difluoromethoxy-phenyl)-4-(2-ethyl-imidazol-1-ylmethyl)-1H-[1,2,3]triazole]	0.0016 µM	0.0016 µM	4.41 µM
Cc1nccn1Cc1cn(-c2ccc(Cl)c(C(F)F)c2)nn1 [Example 89, 1-(4-Chloro-3-difluoromethyl-phenyl)-4-(2-methyl-imidazol-1-ylmethyl)-1H-[1,2,3]triazole]	0.00337 µM	0.00337 µM	8.52 µM
CCc1nccn1Cc1cn(-c2ccc(Cl)c(C)c2)nn1 [Example 70, 1-(4-Chloro-3-methyl-phenyl)-4-(2-ethyl-imidazol-1-ylmethyl)-1H-[1,2,3]triazole]	0.00184 µM	0.00184 µM	3.92 µM
Clc1ccc(-n2cc(Cn3ccnc3C3CCC3)nn2)cc1Cl [Example 39, 4-(2-Cyclobutyl-imidazol-1-ylmethyl)-1-(3,4-dichloro-phenyl)-1H-[1,2,3]triazole]	0.00758 µM	0.00758 µM	1.74 µM
Cc1cc(-n2cc(Cn3ccnc3CCO)nn2)ccc1Cl [Example 74, 1-(4-Chloro-3-methyl-phenyl)-4-[2-(2-hydroxy-ethyl)-imidazol-1-ylmethyl]-1H-[1,2,3]triazole]	0.0069 µM	0.0069 µM	33.8 µM
OCCc1nccn1Cn1cc(-c2ccc(S(F)(F)(F)(F)F)cc2)nn1 [Example 118, 2-(1-((1-(4-(pentafluoro-l6-sulfanyl)phenyl)-1H-1,2,3-triazol-4-yl)methyl)-1H-imidazol-2-yl)ethan-1-ol]	0.263 µM	0.263 µM	12.3 µM
CCc1nccn1Cc1cn(-c2ccc(F)c(C(F)F)c2)nn1 [Example 83, 1-(3-Difluoromethyl-4-fluoro-phenyl)-4-(2-ethyl-imidazol-1-ylmethyl)-1H-[1,2,3]triazole]	0.00411 µM	0.00411 µM	16.7 µM

The next lines start with results.

IC50 [1]	IC50 [2]	SMILES	IC50 [3]
0.038 µM	0.038 µM	FC(F)(F)c1cc(-n2cc(Cn3ccnc3C3CC3)nn2)ccc1Cl [Example 66, 1-(4-Chloro-3-trifluoromethyl-phenyl)-4-(2-cyclopropyl-imidazol-1-ylmethyl)-1H-[1,2,3]triazole]	3.54 µM
3.32 µM	3.32 µM	COc1cc(F)ccc1-n1cc(Cn2ccnc2C2CC2)nn1 [Example 62, 4-(2-Cyclopropyl-imidazol-1-ylmethyl)-1-(4-fluoro-2-methoxy-phenyl)-1H-[1,2,3]triazole]	45.9 µM
0.0179 µM	0.0179 µM	Clc1ccc(-n2cc(Cn3ccnc3C3CC3)nn2)cc1Cl [Example 36, 4-(2-Cyclopropyl-imidazol-1-ylmethyl)-1-(3,4-dichloro-phenyl)-1H-[1,2,3]triazole]	1.16 µM
1.18 µM	1.18 µM	COc1cc(F)ccc1-n1cc(Cn2ccnc2C)nn1 [Example 52, 1-(4-Fluoro-2-methoxy-phenyl)-4-(2-methyl-imidazol-1-ylmethyl)-1H-[1,2,3]triazole]	41.7 µM
0.0283 µM	0.0283 µM	Fc1ccc(-n2cc(Cn3ccnc3C3CC3)nn2)cc1Cl [Example 44]	3.57 µM
0.0916 µM	0.0916 µM	FC(F)(F)c1cccc(-n2cc(Cn3ccnc3C3CC3)nn2)c1 [Example 68, 4-(2-Cyclopropyl-imidazol-1-ylmethyl)-1-(3-trifluoromethyl-phenyl)-1H-[1,2,3]triazole]	5.12 µM
0.0154 µM	0.0154 µM	FC(F)c1cc(-n2cc(Cn3ccnc3C3CC3)nn2)ccc1Cl [Example 90, 1-(4-Chloro-3-difluoromethyl-phenyl)-4-(2-cyclopropyl-imidazol-1-ylmethyl)-1H-[1,2,3]triazole]	5.35 µM
